Measurements reported in US20170131285A1, “METHODS AND COMPOSITIONS FOR DIAGNOSING, MONITORING AND TREATING CANCER” (INSERM (Institut National de la Sante et de la Recherche …, priority 2014, published 2017).
Where no end group is shown, it is not given here.

What was measured:
[1] = test system: EL4 tumors; experiment: EL4 lymphoma tumor model in C57BL6 mice; assay type: in vivo, mouse
Method: FIG. 10: A8 anti-tumor effect in mice is associated with an increased anti-tumor immune response. Mice were s.c. injected with EL4 cells (7·10^5). On day 5, animals were treated every two days until the end of the experiment with either A0 (control aptamer) or A8 (3 mg/kg, i.p. injection). On day 6, half the animals were i.p. treated with a single dose of 5-fluorouracil (5FU, 25 mg/kg). A) At day 10, the percentage of MDSC (Gr1^+ CD11b^+) cells in the spleen collected from the different groups of mice was analyzed by flow cytometry (6 animals per group). As a negative control (Ctl) we used animals with no tumors. B) Tumor size was measured every two days (6 animals per group; n=3). The open symbols represent animals treated with 5FU. T test: *, p<0.05, **, p<0.01, (n=3). C) EL4 tumor sections were performed 10 days after injection of A8. Dendritic cells and macrophages were labeled using, CD11c and F4/80 antibodies. A representative image is shown (n=6 per group). Labeled cells were counted from 300 cells chosen randomly in different microscopic fields.
Animals were killed 15 or 18 days after cell injection. The site of tumor cell injection was resected and snap-frozen in liquid nitrogen. An immunohistochemical study of tumor-infiltrating inflammatory cells was performed on acetone-fixed 5 μm cryostat sections. Tumoral biopsies were blocked in PBS with 3% of BSA (10 min, RT) anti-CD11c (1/50, monoclonal, BD Pharmingen), anti-CD3 (1/50, monoclonal, BD Pharmingen), anti-F4/80 (1/100, monoclonal, BD Pharmingen), diluted in PBS with 1% of BSA, was added on slides and incubated 45 minutes at RT, after washing with PBS. Nuclei were colored with mounting medium: Prolong Gold with Dapi (Molecular Probe). […] Images were acquired using an AxioCam MRm monochrome CCD camera (Carl Zeiss GmbH). Six pictures were taken in random fields for each labeling, and analyzed using image J software.
To confirm A8 in vivo results shown in FIG. 5, the inventors have used another syngeneic model: lymphoma EL4 tumors developed in C57BL6 mice. […]

[2] = test system: MSC2 cells; experiment: MSC2 proliferation (RTCA-DP, BrdU); assay type: cell-based; details: exosomes from B16F10, A8 16 μM and 32 μM
Method: FIG. 9: TDE and A8 effects on MSC2 and MDSC proliferation. A) Dynamic monitoring of in vitro MSC2 cell proliferation using the RTCA-DP system (Real-Time Cell Analyzer). MSC2 were incubated or not for 11 h with exosomes (from B16F10) in the absence or presence of A8 (16 μM and 32 μM). Cell index values were measured every 30 seconds (n=3). B) MSC2 were incubated or not for 24 h with exosomes (from B16F10) in the absence or presence of A8 (16 μM). Then, cells were labelled with BrdU and incorporation was determined by flow cytometry (n=3). C) MDSC were treated with exosomes (from B16F10) in the absence or presence of A8 ([…]) for 24 hours and then analyzed for proliferation by Cellometer-mini. *p<0.05.
MSC2 cells proliferation were analyzed by to different techniques. First, MSC2 (1·10^4) were seeded onto 16-well plates with medium containing 10% FBS and incubated for 34 hours. […] Into each well of the micro-electronic sensor transendothelial electric resistance (TER) was measured by xCELLigence real time cell analyzer DP system (Roche). TER was measured every 30 s and then normalized to the initial value. […] MDSC proliferation was analyzed by cell counting. MDSC cells (1·10^6) from spleen of naive mice (see MDSC isolation section) were treated or not with exosomes (from B16F10) in the absence or presence of A8 (16 μM) for 24 hours and then analyzed for viability by Cellometer-mini (Ozyme).

[3] = biological target: T1, human HSP70/HSP40 (Homo sapiens, UniProt P0DMV8); experiment: Refolding luciferase assay (HSP70 chaperone activity); assay type: biochemical; details: A8 5 μM to 50 μM, 1 hour at 25° C., purified recombinant proteins
T1 construct: purchased StressGen (EnzoLife)
Method: FIG. 3: A8 blocks HSP70/TLR2 association. (A) Immunoprecipitation of TLR2 in the presence of increasing concentrations of A8 (from 0.3 μM to 1.8 μM) was followed by HSP70 immunoblotting. IP control, no relevant IgG antibody. (B) Denatured luciferase (D) was incubated in the absence or presence of human HSP70 and, when indicated, increasing concentrations of A8 (C1=5 μM; C2=15 μM; C3=25 μM and C4=50 μM) for 1 hour at 25° C. Following incubation, the luciferase substrate D-luciferin was added and within 10 minutes the total light units emitted were collected for 10 seconds at 560 nm using a Wallac (Victor 3) spectrophotometer. *, p<0.05. (C) Biolayer interferometry to determine association and dissociation curves of HSP70 (concentration range from 2.5 μM to 156 nM) with biotinylated TRL2 immobilized on streptavidin sensor tips. (D) Association and dissociation curves of HSP70 (concentration range from 50 nM to 1.28 nM) with biotinylated A8 immobilized on streptavidin sensor tips. Curves in C and D represent mean values of triplicate measurements for each concentration. […]

T1 sequence (P0DMV8 whole entry): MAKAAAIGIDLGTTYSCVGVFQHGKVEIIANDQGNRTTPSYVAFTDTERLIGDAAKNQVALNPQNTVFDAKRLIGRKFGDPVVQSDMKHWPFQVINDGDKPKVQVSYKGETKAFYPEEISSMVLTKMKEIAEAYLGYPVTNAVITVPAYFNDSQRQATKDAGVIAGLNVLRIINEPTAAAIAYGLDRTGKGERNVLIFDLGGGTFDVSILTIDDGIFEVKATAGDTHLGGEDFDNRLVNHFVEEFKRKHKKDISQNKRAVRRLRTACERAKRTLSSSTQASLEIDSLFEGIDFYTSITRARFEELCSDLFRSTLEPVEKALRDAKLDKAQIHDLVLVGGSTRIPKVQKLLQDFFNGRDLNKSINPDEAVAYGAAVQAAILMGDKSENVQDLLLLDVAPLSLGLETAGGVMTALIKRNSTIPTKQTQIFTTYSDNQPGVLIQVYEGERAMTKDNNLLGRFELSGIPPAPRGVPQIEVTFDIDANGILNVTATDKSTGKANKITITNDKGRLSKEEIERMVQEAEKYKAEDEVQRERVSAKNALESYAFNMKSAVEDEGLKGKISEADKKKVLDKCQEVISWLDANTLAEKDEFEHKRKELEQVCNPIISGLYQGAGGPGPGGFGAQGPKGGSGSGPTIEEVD

HSP70 chaperone activity (luciferase refolding) [3]: blocked, in a dose-dependent manner
Sequence: SPWPRPTY [Aptamer A8, SPWPRPTY]
tumor infiltration by immune cells [1]: strongly infiltrated by different immune cells | number of MDSC in the spleen ([1]; A8 3 mg/kg i.p. every two days, day 10): a decrease in the number of MDSC in the spleen | size of the tumors ([1]; A8 3 mg/kg i.p., with or without single dose 5FU 25 mg/kg i.p.): a decrease in the size of the tumors mainly when added in combination to 5FU | TDE-induced proliferation of MSC2 [2]: blocked
